Assay results from US20210238162A1, “CHEMICAL COMPOUNDS” (GlaxoSmithKline Intellectual Property Development Limited, priority 2015, published 2021).
Structures can show the parent of a compound that is named as a salt.

Biological target: T1, haematopoietic prostaglandin D synthase (H-PGDS) (Homo sapiens, UniProt O60760)
T1 construct: Full length human H-PGDS cDNA (Invitrogen Ultimate ORF IOH13026) was amplified by PCR; made in house; host or cells: E. coli BL21 (DE3*), vector pET22b+
Experiment: H-PGDS RapidFire High Throughput Mass Spectrometry Assay
Type: biochemical
Settings: H-PGDS RapidFire MS assay, mean pIC50; read-out: Potency Range (mean pIC50) (converted)
Procedure, shortened: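 PGH2 (~10 μM burst) generated in situ from arachidonic acid by FLAG-tagged human COX-2 (Sf9-expressed), then converted to PGD2 by full-length human His-tagged H-PGDS from E. coli. PGD2 and PGF2α (substrate surrogate) quantified by RapidFire SPE-triple quadrupole MS; percent conversion calculated.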

T1 sequence (O60760 whole entry): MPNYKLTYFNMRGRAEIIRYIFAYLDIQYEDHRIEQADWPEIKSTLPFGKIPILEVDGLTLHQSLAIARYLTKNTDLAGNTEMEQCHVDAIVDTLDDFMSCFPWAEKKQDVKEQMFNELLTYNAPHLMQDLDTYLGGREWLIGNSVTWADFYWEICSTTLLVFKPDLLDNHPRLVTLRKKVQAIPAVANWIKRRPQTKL

SMILES	IC50
O=C(N[C@H]1CC[C@H](N[C@H](CO)C(F)(F)F)CC1)c1cnc2cc(OC(F)F)c(F)cc2c1 [Example 77, 7-(Difluoromethoxy)-6-fluoro-N-(trans-4-(((R)-1,1,1-trifluoro-3-hydroxypropan-2-yl)amino)cyclohexyl)quinoline-3-carboxamide]	10 to 79.4 nM
O=C(N[C@H]1CCN(CC2CCCC2)C1=O)c1cnc2cc(OC(F)F)c(F)cc2c1 [Example 78, (S)—N-(1-(Cyclopentylmethyl)-2-oxopyrrolidin-3-yl)-7-(difluoromethoxy)-6-fluoroquinoline-3-carboxamide]	10 to 79.4 nM
CC(C)C(O)CO[C@H]1CC[C@H](NC(=O)c2cnc3cc(OC(F)F)c(F)cc3c2)CC1 (stereo partly drawn) [Example 79, 7-(Difluoromethoxy)-6-fluoro-N-(trans-4-(2-hydroxy-3-methylbutoxy)cyclohexyl)quinoline-3-carboxamide]	10 to 79.4 nM
CCOC(=O)c1cnc(N2CC[C@H](NC(=O)c3cnc4cc(OC(F)F)c(F)cc4c3)C2)o1 [Example 80, (S)-Ethyl 2-(3-(7-(difluoromethoxy)-6-fluoroquinoline-3-carboxamido)pyrrolidin-1-yl)oxazole-5-carboxylate trifluoroacetic acid salt]	10 to 79.4 nM
CC[C@]1(O)CC[C@H](NC(=O)c2cnc3cc(OC(F)F)c(F)cc3c2)CC1 [Example 81, 7-(Difluoromethoxy)-N-((1r,4r)-4-ethyl-4-hydroxycyclohexyl)-6-fluoroquinoline-3-carboxamide]	10 to 79.4 nM
CCOC(=O)c1coc(N2CC(NC(=O)c3cnc4cc(OC(F)F)c(F)cc4c3)C2)n1 [Example 82, Ethyl 2-(3-(7-(difluoromethoxy)-6-fluoroquinoline-3-carboxamido)azetidin-1-yl)oxazole-4-carboxylate]	10 to 79.4 nM
CCOC(=O)c1cnc(N[C@H]2C[C@H](NC(=O)c3cnc4cc(OC(F)F)c(F)cc4c3)C2)o1 [Example 83, Ethyl 2-((trans-3-(7-(difluoromethoxy)-6-fluoroquinoline-3-carboxamido)cyclobutyl)amino)oxazole-5-carboxylate]	10 to 79.4 nM
CCOC(=O)c1cnc(N2CC(NC(=O)c3cnc4cc(OC(F)F)c(F)cc4c3)C2)o1 [Example 84, Ethyl 2-(3-(7-(difluoromethoxy)-6-fluoroquinoline-3-carboxamido)azetidin-1-yl)oxazole-5-carboxylate]	10 to 79.4 nM
O=C(N[C@H]1CC[C@H](N[C@@H](CO)C(F)(F)F)CC1)c1cnc2cc(OC(F)F)c(F)cc2c1 [Example 85, 7-(Difluoromethoxy)-6-fluoro-N-(trans-4-(((S)-1,1,1-trifluoro-3-hydroxypropan-2-yl)amino)cyclohexyl)quinoline-3-carboxamide]	10 to 79.4 nM
COC(=O)[C@H]1CC[C@H](NC(=O)c2cnc3cc(OC(F)F)c(F)cc3c2)CC1 [Example 86, trans-Methyl 4-(7-(difluoromethoxy)-6-fluoroquinoline-3-carboxamido)cyclohexanecarboxylate]	< 10 nM
N#C[C@H]1CC[C@H](NC(=O)c2cnc3cc(OC(F)F)c(F)cc3c2)CC1 [Example 87, N-(trans-4-Cyanocyclohexyl)-7-(difluoromethoxy)-6-fluoroquinoline-3-carboxamide]	10 to 79.4 nM
CCOC(=O)C[C@H]1CC[C@H](NC(=O)c2cnc3cc(OC(F)F)c(F)cc3c2)CC1 [Example 88, Ethyl 2-(trans-4-(7-(difluoromethoxy)-6-fluoroquinoline-3-carboxamido)cyclohexyl)acetate]	10 to 79.4 nM
O=C(N[C@H]1CC[C@@H](N2CC(F)C2)CC1)c1cnc2cc(OC(F)F)c(F)cc2c1 [Example 89, 7-(Difluoromethoxy)-6-fluoro-N-(cis-4-(3-fluoroazetidin-1-yl)cyclohexyl)quinoline-3-carboxamide]	100 to 1000 nM
O=C(N[C@H]1CC[C@H](N2CC(F)C2)CC1)c1cnc2cc(OC(F)F)c(F)cc2c1 [Example 90, 7-(Difluoromethoxy)-6-fluoro-N-(trans-4-(3-fluoroazetidin-1-yl)cyclohexyl)quinoline-3-carboxamide]	10 to 79.4 nM
O=C(N[C@H]1CC[C@@H](N2CC(O)(C(F)(F)F)C2)CC1)c1cnc2cc(OC(F)F)c(F)cc2c1 [Example 91, 7-(Difluoromethoxy)-6-fluoro-N-(cis-4-(3-hydroxy-3-(trifluoromethyl)azetidin-1-yl)cyclohexyl)quinoline-3-carboxamide]	100 to 1000 nM
O=C(N[C@H]1CC[C@H](N2CC(O)(C(F)(F)F)C2)CC1)c1cnc2cc(OC(F)F)c(F)cc2c1 [Example 92, 7-(Difluoromethoxy)-6-fluoro-N-(trans-4-(3-hydroxy-3-(trifluoromethyl)azetidin-1-yl)cyclohexyl)quinoline-3-carboxamide]	10 to 79.4 nM
C[C@]1(O)C[C@@H](NC(=O)c2cnc3cc(OC(F)F)c(F)cc3c2)C1 [Example 93, 7-(Difluoromethoxy)-6-fluoro-N-((1s,3s)-3-hydroxy-3-methylcyclobutyl)quinoline-3-carboxamide]	100 to 1000 nM
CS(=O)(=O)CCO[C@H]1CC[C@H](NC(=O)c2cnc3cc(OC(F)F)c(F)cc3c2)CC1 [Example 94, 7-(Difluoromethoxy)-6-fluoro-N-(trans-4-(2-(methylsulfonyl)ethoxy)cyclohexyl)quinoline-3-carboxamide]	10 to 79.4 nM

SMILES	IC50
O=C(NC1CCN(c2ccccn2)CC1)c1cnc2cc(OC(F)F)c(F)cc2c1 [Example 95, 7-(Difluoromethoxy)-6-fluoro-N-(1-(pyridin-2-yl)piperidin-4-yl)quinoline-3-carboxamide]	< 10 nM
O=C(NC1CCN(c2cccnc2)CC1)c1cnc2cc(OC(F)F)c(F)cc2c1 [Example 96, 7-(Difluoromethoxy)-6-fluoro-N-(1-(pyridin-3-yl)piperidin-4-yl)quinoline-3-carboxamide]	10 to 79.4 nM
N#Cc1cnc(N2CCC(NC(=O)c3cnc4cc(OC(F)F)c(F)cc4c3)CC2)o1 [Example 97, N-(1-(5-Cyanooxazol-2-yl)piperidin-4-yl)-7-(difluoromethoxy)-6-fluoroquinoline-3-carboxamide]	10 to 79.4 nM
N#Cc1ccc(N2CC(NC(=O)c3cnc4cc(OC(F)F)c(F)cc4c3)C2)nc1 [Example 98, N-(1-(5-Cyanopyridin-2-yl)azetidin-3-yl)-7-(difluoromethoxy)-6-fluoroquinoline-3-carboxamide]	10 to 79.4 nM
C[C@@H](NC[C@H]1CC[C@H](NC(=O)c2cnc3cc(OC(F)F)c(F)cc3c2)CC1)C(F)F [Example 99, 7-(Difluoromethoxy)-N-(trans-4-((((R)-1,1-difluoropropan-2-yl)amino)methyl)cyclohexyl)-6-fluoroquinoline-3-carboxamide]	10 to 79.4 nM
C[C@H](NC[C@H]1CC[C@H](NC(=O)c2cnc3cc(OC(F)F)c(F)cc3c2)CC1)C(F)F [Example 100, 7-(Difluoromethoxy)-N-(trans-4-((((S)-1,1-difluoropropan-2-yl)amino)methyl)cyclohexyl)-6-fluoroquinoline-3-carboxamide]	10 to 79.4 nM
C#CCOC[C@H]1CC[C@H](NC(=O)c2cnc3cc(OC(F)F)c(F)cc3c2)CC1 [Example 101, 7-(Difluoromethoxy)-6-fluoro-N-(trans-4-((prop-2-yn-1-yloxy)methyl)cyclohexyl)quinoline-3-carboxamide]	< 10 nM
C#CCNC(=O)CO[C@H]1CC[C@H](NC(=O)c2cnc3cc(OC(F)F)c(F)cc3c2)CC1 [Example 102, 7-(Difluoromethoxy)-6-fluoro-N-(trans-4-(2-oxo-2-(prop-2-yn-1-ylamino)ethoxy)cyclohexyl)quinoline-3-carboxamide]	10 to 79.4 nM
C#CCCNC(=O)CO[C@H]1CC[C@H](NC(=O)c2cnc3cc(OC(F)F)c(F)cc3c2)CC1 [Example 103, N-(trans-4-(2-(but-3-yn-1-ylamino)-2-oxoethoxy)cyclohexyl)-7-(difluoromethoxy)-6-fluoroquinoline-3-carboxamide]	10 to 79.4 nM
CCc1cccc2cc(C(=O)Nc3nccs3)cnc12 [Example 105, 8-Ethyl-N-(thiazol-2-yl)quinoline-3-carboxamide]	100 to 1000 nM
Cn1nnnc1N1CCC(NC(=O)c2cnc3ccc(Cl)cc3c2)CC1 [Example 106, 6-Chloro-N-(1-(1-methyl-1H-tetrazol-5-yl)piperidin-4-yl)quinoline-3-carboxamide]	100 to 1000 nM
Cn1nnnc1N1CCC(NC(=O)c2cnc3cc(C(F)(F)F)ccc3c2)CC1 [Example 107, N-(1-(1-Methyl-1H-tetrazol-5-yl)piperidin-4-yl)-7-(trifluoromethyl)quinoline-3-carboxamide]	100 to 1000 nM
Cn1nnnc1N1CCC(NC(=O)c2cnc3cc(Br)ccc3c2)CC1 [Example 108, 7-Bromo-N-(1-(1-methyl-1H-tetrazol-5-yl)piperidin-4-yl)quinoline-3-carboxamide]	10 to 79.4 nM
Cn1nnnc1N1CCC(NC(=O)c2cnc3cc(Cl)ccc3c2)CC1 [Example 109, 7-Chloro-N-(1-(1-methyl-1H-tetrazol-5-yl)piperidin-4-yl)quinoline-3-carboxamide]	100 to 1000 nM
CCc1ccc2cc(C(=O)NC3CCN(c4nnnn4C)CC3)cnc2c1 [Example 110, 7-Ethyl-N-(1-(1-methyl-1H-tetrazol-5-yl)piperidin-4-yl)quinoline-3-carboxamide]	10 to 79.4 nM
Cn1nnnc1N1CCC(NC(=O)c2cnc3cc4c(cc3c2)OCCO4)CC1 [Example 111, N-(1-(1-Methyl-1H-tetrazol-5-yl)piperidin-4-yl)-2,3-dihydro-[1,4]dioxino[2,3-q]quinoline-8-carboxamide]	10 to 79.4 nM
Cn1nnnc1N1CCC(NC(=O)c2cnc3c4c(ccc3c2)CCO4)CC1 [Example 112, N-(1-(1-Methyl-1H-tetrazol-5-yl)piperidin-4-yl)-2,3-dihydrofuro[3,2-h]quinoline-7-carboxamide]	10 to 79.4 nM
